In assay [1] the test system is pERK (Thr202/Tyr204) in NCI-H358_Cas9_SOS2 (SOS2 knocked). The assay is described as follows: ERK phosphorylation assay 2 (AlphaLISA SureFire Ultra p-ERK1/2). The following applies: read-out: IC50 H358 pERK, ERK phosphorylation assay 2 (values marked with *). For orientation: Alpha assays give light when donor and acceptor beads are brought close together.
Method: ERK Phosphorylation Assay
Low IC50 values in this assay setting are indicative of high potency of the compounds according to the invention.
GFP positive cells were collected and further expanded. These GFP-positive cell pools were single-cell diluted and SOS2 knock-out clones were identified via Western-blot and genomic DNA sequencing analysis.
Materials Used for the Assay:
AlphaLISA SureFire Ultra p-ERK1/2 (Thr202/Tyr204) Assay Kit (ALSU-PERK-A500)
Cells are seeded at 40,000 cells per well in /60 μL of RPMI with 10% FBS, non-essential amino acids, pyruvate and glutamax in Greiner TC 384 plates. The cells are incubated for 1 h at room temperature and then incubated overnight in an incubator at 37° C. and 5% CO2 in a humidified atmosphere. 60 nL compound solution (10 mM DMSO stock solution) is then added using a Labcyte Echo 550 device. After a 1 h incubation in the aforementioned incubator the medium is removed after centrifugation and the cells lysed by addition of 20 μL of 1.6-fold lysis buffer from the AlphaLISA SureFire Ultra pERK1/2 (Thr202/Tyr204) Assay Kit with added protease inhibitors, 100 nM trametinib+100 nM staurosporine. After 20 minutes of incubation at room temperature with shaking, 6 μL of each lysate sample is transferred to a 384-well Proxiplate and analyzed for pERK (Thr202/Tyr204) with the AlphaLISA SureFire Ultra pERK1/2 (Thr202/Tyr204) Assay Kit. 3 μL Acceptor Mix and 3 μL Donor Mix are added under subdued light and incubated for 2 h at room temperature in the dark, before the signal is measured on a PerkinElmer Envision HTS Multilabel Reader. The raw data were imported into and analyzed with the Boehringer Ingelheim proprietary software MegaLab (curve fitting based on the program PRISM, GraphPad Inc.).
In assay [2] the target is KRASG12-dependent Ba/F3 cells (Homo sapiens, UniProt P01116, G12C, cells depend on it). The assay is described as follows: Ba/F3 cell model proliferation assay (AlamarBlue, 72 h). Format: cell-based. The following applies: Ba/F3 cells transduced with KRASG12C, read-out: IC50 Ba/F3 KRASG12C. (In general: The colour change of resazurin is a common sign of viable cells or microbes.)
Chain of KRASG12-dependent Ba/F3 cells (P01116 whole entry G12C): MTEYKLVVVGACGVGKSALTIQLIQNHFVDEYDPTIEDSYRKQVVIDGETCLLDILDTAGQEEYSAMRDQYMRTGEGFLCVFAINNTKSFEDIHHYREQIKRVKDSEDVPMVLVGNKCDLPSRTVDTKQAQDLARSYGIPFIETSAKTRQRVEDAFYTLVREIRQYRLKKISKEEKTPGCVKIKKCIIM

Assay [3] concerns the target T1, protein-protein interaction between SOS1 and KRAS G12C (Homo sapiens, UniProt P01116, C118S/C51S/C80L/G12C).
T1 construct: His6 (N)
The assay is described as follows: KRAS::SOS1 AlphaScreen binding assay.

T1 sequence (P01116 1-169 isoform P01116-2 G12C/C51S/C80L/C118S): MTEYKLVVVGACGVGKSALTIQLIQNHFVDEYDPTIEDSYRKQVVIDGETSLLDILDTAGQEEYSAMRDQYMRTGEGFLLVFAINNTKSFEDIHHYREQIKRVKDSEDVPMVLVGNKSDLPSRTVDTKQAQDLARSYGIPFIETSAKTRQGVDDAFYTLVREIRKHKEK

In the case of `C=CC(=O)N1CCN(c2nc(O[C@@H](C)[C@@H]3CCCN3C)nc(-c3noc([C@@]4(C)CCCc5sc(N)c(C#N)c54)n3)n2)CC1` [Ia-139], the half-inhibitory concentration (IC50) amounted to 1.4 nM in assay [1] and 1.5 nM in assay [3] (Table 36). The GI50 in assay [2] worked out at 2.1 nM.
The like results for `C=CC(=O)N1CCN(c2cc(-c3noc([C@@]4(C)CCCc5sc(N)c(C#N)c54)n3)nc(O[C@@H](C)[C@@H]3CCCN3C3CCN(C)CC3)n2)CC1` [Ia-135] were, in that order, 9.6 nM, 2 nM and 25.4 nM.
For the compound `C=CC(=O)N1[C@H](C)CN(c2cc(-c3noc([C@@]4(C)CCCc5sc(N)c(C#N)c54)n3)nc(O[C@@H](C)[C@@H]3CCCN3C)n2)C[C@H]1C` [Ia-56], the IC50 was determined as 62.1 nM in assay [1] and 105 nM in assay [3] (Table 36). The GI50 in assay [2] was found to be 303 nM.
The like results for `C=CC(=O)N1C2CCC1CN(c1cc(-c3noc([C@@]4(C)CCCc5sc(N)c(C#N)c54)n3)nc(O[C@@H](C)[C@@H]3CCCN3C)n1)C2` [Ia-59] were, in that order, 5.5 nM, 3 nM and 32.5 nM.
Take `CC#CC(=O)N1CCN(c2cc(-c3noc([C@@]4(C)CCCc5sc(N)c(C#N)c54)n3)nc(O[C@@H](C)[C@@H]3CCCN3C)n2)C2CCCC21` (stereo partly drawn) [Ia-167]: the concentration for half-maximal inhibition (IC50) in assay [1] amounted to 77.2 nM; in assay [3] (Table 38), 15 nM. In addition, the GI50 in assay [2] came out at 189 nM.
With `C=CC(=O)N1C[C@H](Oc2cc(O[C@@H](C)[C@@H]3CCCN3C)nc(-c3noc([C@@]4(C)CCCc5sc(N)c(C#N)c54)n3)c2)[C@H]1C` [Ia-85], the values for the half-inhibitory concentration (IC50) in assay [1] and in assay [3] (Table 36) were 0.7 nM and 1.6 nM, respectively. The GI50 in assay [2] was found to be 0.7 nM.
`C=CC(=O)N1CCN(c2cc(-c3noc([C@@]4(C)CCCc5sc(N)c(C#N)c54)n3)nc(OC3CCCC34CCCN4C)n2)CC1` (stereo partly drawn) [Ia-49]: the half-inhibitory concentration (IC50) came out at 10.4 nM in assay [1] and 4 nM in assay [3] (Table 36). In addition, the GI50 in assay [2] was determined as 26 nM.
Consider `C=CC(=O)N1CCN(c2cc(O[C@@H](C)[C@@H]3CCCN3C)nc(-c3noc([C@@]4(C)CCCc5sc(N)c(C#N)c54)n3)c2)CC12CCC2` [Ia-83], for which the half-maximal inhibitory concentration (IC50) is 10.2 nM in assay [1] and 2 nM in assay [3] (Table 36). Further, in assay [2], the GI50 turned out to be 7.4 nM.
As to `COC/C=C/C(=O)N1CCN(c2cc(-c3noc([C@@]4(C)CCCc5sc(N)c(C#N)c54)n3)nc(O[C@@H](C)[C@@H]3CCCN3C)n2)CC12CC2` [Ia-160], the IC50 in assay [1] was found to be 25.3 nM; in assay [3] (Table 37), 11 nM. For the same compound, the GI50 in assay [2] is 116 nM.
In the case of `C=CC(=O)N1CCC(Oc2cc(O[C@@H](C)[C@@H]3CCCN3C)nc(-c3noc([C@@]4(C)CCCc5sc(N)c(C#N)c54)n3)c2)CC1` [Ia-4], the 50% inhibitory concentration (IC50) in assay [1] was determined as 1.1 nM; in assay [3] (Table 36), 1.7 nM. The GI50 in assay [2] was found to be 1 nM.
The corresponding values for `C=CC(=O)N1CCN(c2cc(-c3noc([C@@]4(C)CCCc5sc(N)c(C#N)c54)n3)nc(OC[C@@H]3CC4(CC4)CN3C)n2)CC1` [Ia-72] are 50.9 nM, 7 nM and 77.8 nM.
For `C=CC(=O)N1CCN(c2cc(-c3noc([C@@]4(C)CCCc5sc(N)c(C#N)c54)n3)nc(O[C@@H](C)[C@@H]3CCCN3C)n2)C2CCCC21` (stereo partly drawn) [Ia-60], the IC50 in assay [1] amounted to 2.8 nM; in assay [3] (Table 36), 1.7 nM. In addition, the GI50 in assay [2] was found to be 5.9 nM.
The like results for `C=CC(=O)N1CCN(c2cc(-c3noc([C@@]4(C)CCc5sc(N)c(C#N)c54)n3)nc(N[C@@H](C)[C@@H]3CCCN3C)n2)CC1` [Ia-132] were, in that order, 1350 nM, 515 nM and 1310 nM.
With `COC/C=C/C(=O)N1CCN(c2cc(-c3noc([C@@]4(C)CCCc5sc(N)c(C#N)c54)n3)nc(O[C@@H](C)[C@@H]3CCCN3C)n2)CC1` [Ia-157], the 50% inhibitory concentration (IC50) in assay [1] was 238 nM; in assay [3] (Table 37) it was 16 nM. For the same compound, the GI50 in assay [2] is 1520 nM.
As to `COC/C=C/C(=O)N1CCC(Oc2cc(O[C@@H](C)[C@@H]3CCCN3C)nc(-c3noc([C@@]4(C)CCCc5sc(N)c(C#N)c54)n3)c2)CC1` [Ia-159], the values for the half-inhibitory concentration (IC50) in assay [1] and in assay [3] (Table 37) were 12.4 nM and 5 nM, respectively. Also, the GI50 in assay [2] was 16.2 nM.

Usually IC50 stands for the midpoint of a concentration-inhibition curve.

For the origin of these results see patent publication US20230212164A1, “ANNULATED 2-AMINO-3-CYANO THIOPHENES AND DERIVATIVES FOR THE TREATMENT OF CANCER” (BOEHRINGER INGELHEIM INTERNATIONAL GMBH, priority 2020, published 2023).
